Columns and labels:
[1] = system: MDA-MB-231 triple negative breast cancer cells; assay: XTT cell growth assay, MDA-MB-231; type: cell-based, human; details: Homo sapiens, MDA-MB-231, 24 h, NS = not statistically significant, read-out: Effectiveness to suppress MDA-MB-231 cell growth (cell growth inhibition)
From the text: (§1) The XTT assay is used to measure cellular metabolic activity as an indicator of cell viability, proliferation and cytotoxicity. This non-radioactive, colorimetric assay system was first described by Scudiero, et al. in 1988 (Paull, Kenneth D. et al., J Heterocycl Chem, 1988, 25: 911-914; Scudiero, Dominic A. et al., Cancer Res, 1988, 48: 4827-4833) and improved in subsequent years by several other investigators (Weislow, Owen S. et al., J Natl Cancer Inst, 1989, 81(8): 577-586; Roehm, N. W. et al., J Immunol Methods, 1991, 142: 257-265).
(§2) The XTT assay is based on the reduction of a yellow tetrazolium salt (sodium 3′-[1-(phenylaminocarbonyl)-3,4-tetrazolium]-bis (4-methoxy6-nitro) benzene sulfonic acid hydrate or XTT) to an orange formazan dye by metabolically active cells (FIG. 8). The formazan dye formed is soluble in aqueous solutions and is directly quantified using a scanning multiwell spectrophotometer (ELISA reader). An increase in number of living cells results in an increase in the overall activity of mitochondrial dehydrogenases in the sample. This increase directly correlates to the amount of orange formazan formed, as monitored by the absorbance. Reduced number of living cells leads to reduced metabolism of quaternary salt and therefore reduced absorption.
(§3) Cell viability was assessed using the XTT assay kit (Roche, Mannheim, Germany) as described previously (Kouka, Paraskevi et al., Oxid Med Cell Longev. 2019, Article ID 1870965). Briefly, cancer cells per well were cultured in a 96-well plate in Dulbecco's modified Eagle's medium (DMEM). Following a 24 h incubation, 5, 10 and 50 μM of the tested GS compound was diluted in a serum-free DMEM and administered for 24 h. Subsequently, 50 μL of the XTT reagent (50:1) was added to each well. After 4 h of incubation, the absorbance was monitored at 450 nm and also at 630 nm as a reference wavelength in a BioTek ELx800 microplate reader (BioTek Instruments Inc., Winooski, VT, USA). As a negative control, samples containing serum-free DMEM only were used.
MDA-MB-231 is a human epithelial breast cancer cell line that was established from a pleural effusion of a person with a metastatic mammary adenocarcinomal and is one of the most commonly used breast cancer cell lines in medical research laboratories.
(§4) The effects of exemplary compounds on cancer cell lines and one non-tumorigenic cell line (control) were investigated using a high throughput screening assay. More specifically, the effects of the GS compounds on cell growth was evaluated by the XTT assay for cell lines HepG2, HeLa, MCF7 ER+, MDA-MB-231, and MKN-45, and by the Cell Glo luminescence assay for cell lines MIA PaCa-2, HCT-116, MCF-10A, and PANC-1.

[2] = system: HeLa cervical cancer cells; assay: XTT cell growth assay, HeLa; type: cell-based, human; details: Homo sapiens, HeLa, 24 h, NS = not statistically significant, read-out: Effectiveness to suppress HeLa cell growth (cell growth inhibition)
From the text: as §1, §2, §3
HeLa is a human immortal cell line used in scientific research. It is the oldest and most commonly used human cell line. The line was derived from cervical cancer cells taken on Feb. 8, 1951 from Henrietta Lacks, a patient who died of cancer on Oct. 4, 1951.
as §4

| Compound | inhibition at 50 µM [1] [%] | inhibition at 50 µM [2] [%] |
| --- | --- | --- |
| C/C=C1/[C@H](OC2OC(CO)C(O)C(O)C2O)OC=C(C(=O)O)[C@H]1CC(=O)O (stereo in doubt) [GS2, (2S,4S,E)-4-(carboxymethyl)-3-Ethylidene-2-{[(2R,3S,4R,5R,6S)-3,4,5-trihydroxy-6-(hydroxymethyl)tetrahydro-2H-pyran-2-yl]oxy}-3,4-dihydro-2H-pyran-5-carboxylic acid] | 41.8 | 24.4 |
| C/C=C1/[C@H](OC2OC(CO)C(O)C(O)C2O)OC=C(C(=O)O)[C@H]1CC(=O)OCCc1ccc(O)cc1 (stereo in doubt) [GS7, (2S,4S,E)-3-ethylidene-4-(2-(4-hydroxyphenethoxy)-2-oxoethyl)-2{[(2R,3 S,4R,5R,6S)-3,4,5-trihydroxy-6-(hydroxymethyl)tetrahydro-2H-pyran-2-yl]oxy}-3,4dihydro-2H-pyran-5-carboxylic acid] | 32.7 |  |
| C/C=C1/[C@H](OC2OC(CO)C(O)C(O)C2O)OC=C(C(=O)O)[C@H]1CC(=O)OCc1cc2ccccc2[nH]1 (stereo in doubt) [GS8, (2S,4S,E)-4-(2-((1H-indol-2-yl)methoxy)-2-oxoethyl)-3-ethylidene-2-{[(2R,3S,4R,5R,6S)-3,4,5-trihydroxy-6-(hydroxymethyl)tetrahydro-2H-pyran-2-yl]oxy}-3,4-dihydro-2H-pyran-5-carboxylic acid] | 22.5 | 38.2 |
| C/C=C1/[C@H](OC2OC(CO)C(O)C(O)C2O)OC=C(C(=O)O)[C@H]1CC(=O)OCC12CC3CC(CC(C3)C1)C2 (stereo in doubt) [GS3, (2S,4S,E)-4-(2-(adamantan-1-ylmethoxy)-2-oxoethyl)-3-ethylidene-2-{[(2R,3S,4R,5R,6S)-3,4,5-trihydroxy-6-(hydroxymethyl)tetrahydro-2H-pyran-2-yl]oxy}-3,4-dihydro-2H-pyran-5-carboxylic acid] | 64.7 |  |
| C/C=C1/[C@H](OC2OC(CO)C(O)C(O)C2O)OC=C(C(=O)O)[C@H]1CC(=O)OCCC1CCCCC1 (stereo in doubt) [GS5, (2S,4S,E)-4-(2-(2-cyclohexylethoxy)-2-oxoethyl)-3-ethylidene-2-{[(2R,3S,4R,5R,6S)-3,4,5-trihydroxy-6-(hydroxymethyl)tetrahydro-2H-pyran-2-yl]oxy}-3,4-dihydro-2H-pyran-5-carboxylic acid] | 33.6 |  |
